Consider two compounds from article PMC9138991, “Effect of Trimethine Cyanine Dye- and Folate-Conjugation on the In Vitro Biological Activity of Proapoptotic Peptides” (Biomolecules, 2022).

Common to all, as to assay type: cell-based, human
Data set [1] has as its system KB cells. Description: Cell viability assay (CellTiter-Blue), KB cells. The note with it: 7 × 10^3 cells per well, folic acid-depleted RPMI-1640 + 10% FBS, 1% DMSO, 24 h at 37 °C, then CellTiter-Blue 4 h, three biological replicates fitted in Origin, standard error in brackets. The procedure: (§1) KB and MCF7 cells were kindly gifted by Prof. Arwyn T. Jones (Cardiff University), HEK293 cells were purchased from Public Health England, and SK-OV-3 cells were purchased from National Collection of Authenticated Cell Cultures (https://cell-bank.org.cn/). Cells were routinely tested for mycoplasma infection. KB and SK-OV-3 cells were maintained in T75 flasks at 37 °C in a 5% CO2 atmosphere in folic acid-depleted Roswell Park Memorial Institute (RPMI)-1640 medium supplemented with 10% (v/v) fetal bovine serum (FBS). MCF7 and HEK293 cells were maintained in T75 flasks at 37 °C in a 5% CO2 atmosphere in Dulbecco’s Modified Eagle’s medium (DMEM) supplemented with 10% (v/v) FBS. Cells were maintained at a sub-confluent monolayer and split at 80–85% confluency. For splitting, cells were washed with PBS, trypsinized in 1 mL of trypsin, and 200 µL of the 1000 µL trypsin cell suspension was re-suspended in 12 mL fresh DMEM containing 10% (v/v) FBS in a new T75 flask. KB and SK-OV-3 cells were used for biological experiments after being maintained for at least 10 days in folic acid-depleted RPMI-1640 medium.
(§2) SK-OV-3, MCF7, and HEK293 cells were seeded at a density of 2 × 10^4 cells per well in a Nunc™ MicroWell™ 96-well plate and grown at 37 °C in a 5% CO2 atmosphere in DMEM supplemented with 10% (v/v) FBS for 24 h. KB cells were seeded at a density of 7 × 10^3 cells per well in a 96-well plate and grown at 37 °C in a 5% CO2 atmosphere in folic acid-depleted RPMI-1640 medium supplemented with 10% (v/v) FBS for 24 h. Stock solutions of compounds 2–6 and 11–13 were obtained by dissolving the compounds in sterile deionized water. Compounds 1, and 7–10 were dissolved in pure DMSO. The stock solutions were diluted into the proper medium (according to the cell line tested) supplemented with 10% FBS to the appropriate concentration, and cells in each well were incubated with 100 µL of the solution. The solutions in each well were then adjusted to a concentration of 1% (v/v) DMSO. After 24 h at 37 °C, 20 µL of CellTiter-Blue™ was added to each well. The plate was incubated for another 4 h at 37 °C before analysis on a Perkin Elmer Victor X plate reader (excitation 531 nm; emission 595 nm). Each data point was calculated from a minimum of nine values resulting from three biological replicates (i.e., cells split from three different passages); each biological replicate is calculated from three technical replicates (i.e., cells split from the same passage). Value from media-only with CellTiter-Blue™ was set at 0% viability. This value was then subtracted from the values from cell-only (i.e., non-treated) wells with CellTiter-Blue™ in each biological replicate and set as 100% viability. For treatments of Cy3-containing compounds, blanks were generated with cell-free wells containing the compounds incubated for 24 h before addition of CellTiter-Blue™. The fluorescent reading for these wells was deducted from the treatment readings. Dose-response fitting curves were generated using Origin, version 2019b, OriginLab Corporation, Northampton, MA, USA (Figures S21–S24, Supplementary Materials).
(§3) Comparison of cytotoxicity fitting curves was achieved by applying the extra sum-of-squares F test, performed using GraphPad Prism version 9 for Windows, GraphPad Software, La Jolla, California, USA (https://www.graphpad.com/). […] Statistical analysis on the flow cytometry data was achieved by applying the unpaired two-tailed t-test test, performed using GraphPad Prism version 9 for Windows, GraphPad Software, La Jolla California USA, USA (https://www.graphpad.com/).
(§4) Cytotoxicity of 1–13 was evaluated using the CellTiter-Blue assay on KB, MCF7, SK-OV-3, and HEK293 cells. KB cells are derived from human cervical cancer, while SK-OV-3 cells are derived from human ovarian cancer. […] This feature is of particular relevance in anticancer applications, as it can be exploited for selective targeting and delivery. […]
A general note: Alamar Blue is a resazurin reagent that responds to reducing activity.

Data set [2] deals with SK-OV-3 cells. Nature of the data set: Cell viability assay (CellTiter-Blue), SK-OV-3 cells. The settings on record: 2 × 10^4 cells per well, medium + 10% FBS, 1% DMSO, 24 h at 37 °C, then CellTiter-Blue 4 h, three biological replicates fitted in Origin, standard error in brackets. The protocol: as §1, §2, §3, §4
Data set [3] concerns KB, MCF7, SK-OV-3, and HEK293 cells. Description: Cell viability assay (CellTiter-Blue), statements over all tested cell lines. The procedure: as §2, §3
Cytotoxicity of 1–13 was evaluated using the CellTiter-Blue assay on KB, MCF7, SK-OV-3, and HEK293 cells. KB cells are derived from human cervical cancer, while SK-OV-3 cells are derived from human ovarian cancer. […] This feature is of particular relevance in anticancer applications, as it can be exploited for selective targeting and delivery. MCF7 is a cell line derived from human breast cancer with low levels of folate receptor α [27]. Therefore, it can serve as the negative control for folate receptor α mediated tumor-targeted drug delivery systems. HEK293 is a non-cancer cell line and was chosen to evaluate the specificity of the tested compounds toward cancer cells.

Data set [4] concerns MCF7 cells. Nature of the data set: Cell viability assay (CellTiter-Blue), MCF7 cells. The settings on record: MCF7 cells, 2 × 10^4 cells per well, DMEM + 10% FBS, 1% DMSO, 24 h at 37 °C, then CellTiter-Blue 4 h; three biological replicates fitted in Origin, standard error in brackets. The protocol:
as §1, §2, §3, §4

Data set [5] concerns HEK293 cells. Description: Cell viability assay (CellTiter-Blue), HEK293 cells. The note with it: 2 × 10^4 cells per well, DMEM + 10% FBS, 1% DMSO, 24 h at 37 °C, then CellTiter-Blue 4 h, three biological replicates fitted in Origin, standard error in brackets. The procedure:
as §1, §2, §3, §4

As usually defined, the EC50 is the concentration at which the effect is half-maximal.

In the case of `CC(C)C[C@@H](NC(=O)[C@H](N)CCCCN)C(=O)N[C@H](C)C(=O)N[C@H](CCCCN)C(=O)N[C@H](CC(C)C)C(=O)N[C@H](C)C(=O)N[C@H](CCCCN)C(=O)N[C@H](CCCCN)C(=O)N[C@H](CC(C)C)C(=O)N[C@H](C)C(=O)N[C@H](CCCCN)C(=O)N[C@H](CC(C)C)C(=O)N[C@H](C)C(=O)N[C@H](CCCCN)C(N)=O` [Compound 3, reference compound], the EC50 in data set [1] is 331 µM; in data set [2], more than 400 µM; in data set [3] (KB, SK-OV-3, MCF7 and HEK293 cells, CellTiter-Blue, 24 h), more than 300 µM; in data set [4], more than 400 µM; in data set [5], more than 400 µM. Further, the “Potency (cytotoxicity) in the tested cell lines, in words” value in data set [3] (KB, SK-OV-3, MCF7 and HEK293 cells, CellTiter-Blue, extra sum-of-squares F test) was “least potent amongst the tested compounds”.
`CC(=O)N[C@@H](CCCCNC(=O)[C@H](CCC(=O)O)NC(=O)c1ccc(NCc2cnc3nc(N)nc(O)c3n2)cc1)C(=O)N[C@H](CCCCN)C(=O)N[C@H](CC(C)C)C(=O)N[C@H](C)C(=O)N[C@H](CCCCN)C(=O)N[C@H](CC(C)C)C(=O)N[C@H](C)C(=O)N[C@H](CCCCN)C(=O)N[C@H](CCCCN)C(=O)N[C@H](CC(C)C)C(=O)N[C@H](C)C(=O)N[C@H](CCCCN)C(=O)N[C@H](CC(C)C)C(=O)N[C@H](C)C(=O)N[C@H](CCCCN)C(N)=O` [Compound 12]: the EC50 in data set [1] was 151 µM; in data set [2] it was 388 µM; in data set [4], more than 400 µM; in data set [5], more than 400 µM. The “Selectivity of cytotoxicity between cell lines, in words” value in data set [3] (folate receptor α-high KB and SK-OV-3 versus MCF7 and HEK293) is “enhanced toxicity in KB but not in SK-OV-3 cells when compared to MCF7 and HEK293 cells”.
